According to PMC9144276, “In Vitro and In Silico Evaluation of Cholinesterase Inhibition by Alkaloids Obtained from Branches of Abuta panurensis Eichler” (Molecules, 2022):
Read-outs that look alike come from different tables or passages of the source.

Molecular target: T1, acetylcholinesterase enzyme from an electric ray Tetronarce californica (Tetronarce californica, UniProt P04058)
T1 construct: purchased Sigma-Aldrich
Test: Acetylcholinesterase inhibition assay (Ellman method, 96-well microplates)
Format: biochemical
Details: for inhibition percentage toward the AChE enzyme: concentration not given
Procedure: An acetylcholinesterase enzyme from an electric ray Tetronarce californica (Sigma-Aldrich, St. Louis, MO, USA) was used for the experiments. The in vitro AChE inhibition assay was performed in 96-well microplates according to the methodology proposed by Ellman et al. and Senol et al. with some modifications. The alkaloid fraction and alkaloids were tested at concentrations of 2.8; 5.6; 11.2; 22.5; 45.0 and 90.0 µg/mL. Initially, 20 µL of each sample from the stock solution (1 mg/mL) were added and serial dilutions were performed. Then, 150 µL of a sodium phosphate buffer pH = 8 ([…]), 20 µL of 5,5’-dithio-bis(2- nitrobenzoic)acid (DTNB, 0.0025 M), and 20 µL of the acetylcholinesterase enzyme (1 U/mL) were added subsequently to each well at 25 °C and left for 15 min. The reaction was initiated by the addition of 10 µL of […] (AChI) (0.1 M). Neostigmine (0.28–9.0 μg/mL) was used as a positive control.
A thiocholine formed by the enzymatic hydrolysis of the AChI, reacts with the DTNB giving rise to a yellow 5-mercapto-2-nitrobenzoate anion. Concentration of the latter in each well was measured as absorbance at 405 nm by using a 96-well microplate reader ELx800^TM (Bio Tek Instruments, Inc., Winooski, VT, USA). The transformation was monitored for 30 min at 5-min intervals. The inhibition curve was plotted as the inhibition percent vs. concentration. All assays were performed in triplicate. Statistical analysis was performed with GraphPad Prism 7.0® software.

[1] = TcAChE, Ellman, 25 °C, pH 8, triplicate, read-out: IC50 for the acetylcholinesterase (AChE) inhibition assay

T1 sequence (P04058 22-586): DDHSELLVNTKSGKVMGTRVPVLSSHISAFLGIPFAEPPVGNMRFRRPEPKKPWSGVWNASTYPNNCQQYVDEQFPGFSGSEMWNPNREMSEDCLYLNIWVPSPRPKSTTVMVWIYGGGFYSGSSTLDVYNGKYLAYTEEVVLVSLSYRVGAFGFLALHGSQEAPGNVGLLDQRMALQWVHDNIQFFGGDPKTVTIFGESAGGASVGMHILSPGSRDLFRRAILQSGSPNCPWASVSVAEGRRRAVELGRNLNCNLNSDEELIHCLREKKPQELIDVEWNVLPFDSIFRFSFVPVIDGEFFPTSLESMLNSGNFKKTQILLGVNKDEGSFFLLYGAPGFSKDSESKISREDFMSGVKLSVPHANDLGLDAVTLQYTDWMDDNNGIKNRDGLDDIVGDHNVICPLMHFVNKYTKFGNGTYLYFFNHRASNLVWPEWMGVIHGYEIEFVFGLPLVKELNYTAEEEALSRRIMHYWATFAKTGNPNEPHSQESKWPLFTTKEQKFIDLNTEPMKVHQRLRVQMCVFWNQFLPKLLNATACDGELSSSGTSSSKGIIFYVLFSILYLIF

Structure (SMILES)	IC50 [1] [µM]	inhibition percentage toward the AChE enzyme (TcAChE)	IC50 [µM]
COc1cc2c(cc1O)C(Cc1ccc(O)c(Oc3cc4c(cc3OC)CCNC4Cc3ccc(O)cc3)c1)NCC2 (single isomer, unassigned) [lindoldhamine isomer 1, Lindoldhamine isomer]	39.38 ± 0.08	above 70%	–
COc1cc2c3c(c1OC)C1(C=CC(=O)C=C1)CC3NCC2 (stereo not shown) [stepharine 2, stepharine]	61.24 ± 0.03	above 70%	–
CN(CCCCNC(=O)/C=C/c1ccccc1)CCCNC(=O)/C=C/c1ccccc1 [5-N-methylmaytenine 4, 5-N-methylmaytenine]	–	above 70%	19.55 ± 0.09
COc1cc2c(cc1OC)-c1cc3ccc(OC)c(OC)c3c[n+]1CC2 [palmatine 3, palmatine]	35.25 ± 0.04	above 70%	–
CN(C)C(=O)Oc1cccc([N+](C)(C)C)c1 [neostigmine, reference compound]	3.72 ± 0.03	above 70%	–
